This note sets out measurements from the NIST ThermoML archive (doi:10.1021/je400487e).

Structures are written as SMILES. ± gives the expanded uncertainty stated by the source.

For this data set the following is noted: 298.15 K; 101.33 kPa; Liquid; Vibrating tube method.
On to `CCCCCCCCCCCCCC` [tetradecane], for which the mass density (usually the mass of a sample divided by its volume) was determined as 759.27 ± 0.26 kg/m3.

For the compound `C1CCCCCCC1` [cyclooctane], the mass density is on record as 831.87 ± 0.26 kg/m3. For the compound `CCCCCCCCCCCC` [dodecane], the mass density worked out at 741.54 ± 0.26 kg/m3. Regarding `CC(C)CC(C)(C)C` [2,2,4-trimethylpentane], the mass density stood at 687.77 ± 0.26 kg/m3. As to `CC(=O)N(C)C` [N,N-dimethylethanamide], the mass density is reported as 936.88 ± 0.26 kg/m3. On to `CCCCCCCCCC` [decane], for which the mass density stood at 726.43 ± 0.26 kg/m3. In the case of `CC1CCCCC1` [methylcyclohexane], the mass density is reported as 764.86 ± 0.26 kg/m3.
